Reference: patent US20160270393A1, “INSECT REPELLENT COMPOSITIONS AND METHODS OF USE” (Wageningen Universiteit, priority 2013, published 2016)
“Also recorded” adds a separate entry of the source. Where two headings read alike, the source gives them in different places.

Assays:
[1] = system: Anopheles gambiae s.s. females; test: Laboratory bioassay of repellent compounds (landings on heated, odour-baited plateau); type: in vivo; settings: for effect on number of landings during eight minutes compared to ethanol control: 1% in ethanol on nylon strip, ten females, n=8, Mann-Whitney U, α=0.0042, listed in order of increasing efficacy; for repellent effect on host-seeking mosquitoes: 1% concentration
Protocol: The bioassay was set up in a room in which air temperature and relative humidity (RH) could easily be controlled. During experiments these parameters were continuously monitored using a Tinyview® data logger with display. Temperature was maintained at 24±1° C. and RH was kept between 60 and 75%.
Because repellents are volatile compounds, the risk of contamination of the setup is always present when testing these substances. Therefore, this bioassay uses replaceable 30×30×30 cm Bugdorm® cages as flight chambers. Although made of polyethylene (PE) and polypropylene (PP) which may potentially pick up the compounds tested, no contamination effects were observed, in contrast to a previously used cage made of metal and polycarbonate (see below).
Mosquitoes were attracted to a heated circular plateau (1) of diameter 15 cm acting as a landing surface, that was positioned underneath the gauze bottom of the Bugdorm® (2). Ten moist filter papers (3) of diameter 8 cm were applied on top of the heating plateau. Metal gauze was placed over the papers on which the strips releasing the odour blend were laid (see below). A transparent plastic cylinder was placed around the plateau to concentrate the warm, humid air within the area above the plateau.
A five-compound odour bait, which simulates the smell of a human foot (Mukabana et al., 2012), provided the necessary attractive background against which repellency could be measured. The individual compounds were released from nylon strips (cut from panty hoses: 90% polyamide, 10% spandex, Marie Claire®) (see Okumu et al. (2010b)). Concentrations were optimized for this release method: ammonia (25%), L-(+)-lactic-acid (88-92%), tetradecanoic acid (16% in ethanol), 3-methyl-1-butanol (0.01% in paraffin oil) and butan-1-amine (0.001% in paraffin oil). Strips measuring 26.5 cm×1 cm were impregnated with the attractive compounds by dipping them into an Eppendorf tube containing 1 ml of solution. Subsequently, they were stored at room temperature for three to five hours. Hereafter the strips were hung for half an hour under a fume hood to allow excess fluids to leak off. Finally they were packed in aluminium foil and stored at 4° C. in a refrigerator until use. Pulses of CO2 were released into the Bugdorm® through a teflon tube (4) that rested on top of the Bugdorm®. Each eight seconds, a two second pulse was released at 2.17 mL/sec (or 130 mL/min).
A glass screen (5, 6) was placed between the Bugdorm® and the place from where a researcher would carry out the behavioural observations. In this way, skin and breath emanations from the researcher were prevented from interfering directly with the mosquitoes inside the flight chamber. In the ceiling of the experimental room a fan created a gentle suction to carry off any volatiles emitted by both the experimental operator and the setup.
Repellence was measured by releasing a number of female Anopheles gambiae s.s. mosquitoes into the cage. The mosquitoes were highly attracted to the warm area on the bottom of the Bugdorm® cage and they would land and probe with their proboscis through the gauze in search of a blood-host.
A potential repellent was released from a nylon strip that was prepared identically to the method used for attractive compounds, with the exception that the strips were not hung up under a fume hood but stored in Eppendorf tubes at 4° C. directly after their preparation. The impregnated nylon strips with the repellents were taken out of their solution just before the start of the experiment and allowed to leak out on a piece of filter paper for 10 s before they were placed in the experimental setup. Strips were laid directly on the gauze bottom of the Bugdorm®, in a circle within the circular area under which the attractant blend was released.
After one minute of acclimatization time, the number of landings within the circular area formed by the treated strip was counted for a period of eight minutes. […]

[2] = system: An. gambiae s.s., Mbita strain; settings: comparison statement; DEET not tested in this setup; cited from earlier work
[3] = system: An. gambiae s.s., Mbita strain; test: Semi-field testing in MalariaSphere (push / push-pull, trap catches inside and outside experimental house); type: in vivo, Anopheles gambiae s.s.; set-up: Reduction (mosquitoes trapped indoors vs control): concentration or dose not given beside the values; settings: for Indoors Mean (SEM) no. mosquitoes / Indoors Percentage trapped / Reduction (mosquitoes trapped indoors vs control) / Outdoors Mean (SEM) no. mosquitoes / Outdoors Percentage trapped: n=6; for spatial repellent effect: inventors' observation, repellent traps spaced about 4-5 meters apart
Description: Mosquitoes (An. gambiae s.s., Mbita strain; henceforth termed An. gambiae) were reared under ambient atmospheric conditions in screenhouses (larvae) and holding rooms (adults) at the Thomas Odhiambo Campus (TOC) of the International Centre of Insect Physiology and Ecology (ICIPE) located near Mbita Point township in western Kenya. Mosquito eggs were placed in plastic trays containing filtered water from Lake Victoria. All larval instars were fed on Tetramin® baby fish food which was supplied thrice per day. Pupae were collected daily and placed in mesh-covered cages (30×30×30 cm) prior to adult emergence. Adult mosquitoes were fed on 6% glucose solution through wicks made from adsorbent tissue paper.
Four to six day old female mosquitoes that had no prior access to blood were used for the semi-field experiments. The mosquitoes were collected from the colony at 12:00 h each day and stored for eight hours in the colony room with access to water on cotton wool. Within 15 min. before the start of the experiment the cups with the mosquitoes were transported to the MalariaSphere.
The experiments were conducted in Kenya at the Mbita Point Research & Training Centre of the International Centre of Insect Physiology and Ecology (ICIPE). Experiments took place in the MalariaSphere, a screenhouse into which a traditional house was built surrounded by natural vegetation (see Knols et al. (2002)). […] The MalariaSphere was set up as described by Knols et al. (2002) with as only modification that no breeding sites were present.
In the experiment the effects of attractant-baited traps and the dispersal of repellents around the traditional house were tested. Eight different setups were tested. During all tests, one attractant-baited trap (see below) was placed inside the experimental house to represent a human being. The house entry of the mosquitoes was measured by the number of mosquitoes caught by the trap inside the house.
Each night at 20:00 h, 200 female mosquitoes were released into the MalariaSphere. At 06:30 h the next morning the experiment was terminated by closing and switching off all traps. The traps were then placed in a freezer for several minutes to inactivate the mosquitoes, after which the number of trapped mosquitoes was determined.
The study compared the effect of three different repellents; in push-only situations, as well as in situations in which both the repellent and the attractive elements were present. […] Open circles represent a MMX trap baited with attractant. Filled circles represent a MMX trap dispersing the repellent. The asterisk indicates the mosquito release point. The numbers of the treatments correspond to the following:
Each setup was tested during six different nights, thus a total of 48 tests was carried out, during the same number of nights. The order of the tests was not fully randomized in order to minimize the risk of contamination of the MalariaSphere with the odours used.
Besides PMD, catnip essential oil (e.o.) and delta-undecalactone (dUDL) were used as repellents. Strips were impregnated with 40% solutions (catnip e.o. and dUDL were dissolved in paraffin oil) as described below.
Each night 200 mosquitoes were released from one central point between the entrance of the screenhouse and the experimental hut (see FIG. 3).
Mosquito Magnet® X (MM-X) traps (Kline (1999), Njiru et al (2006)) were baited with CO2 and a five-compound odour blend, which simulates the smell of a human foot (Mukabana et al., 2012). The individual compounds of the attractive blend were released from nylon strips (cut from panty hoses: 90% polyamide, 10% spandex, Marie Claire®) (Okumu et al. (2010b)). Concentrations were optimized for this setup and release method: ammonia (2.5% in water), L-(+)-lactic-acid (88-92%), tetradecanoic acid (0.000032% in ethanol), 3-methyl-1-butanol (0.000001% in water) and butan-1-amine (0.001% in paraffin oil) (see Table 1). […]

[4] = background statement; cited from earlier work
[5] = push only, 40% solution on strip, 200 mosquitoes released per night
[6] = push only, 200 released per night

SMILES | effect on number of landings during eight minutes compared to ethanol control [1] | Indoors Mean (SEM) no. mosquitoes [3, 5] | Indoors Percentage trapped [3, 6] [%] | Outdoors Mean (SEM) no. mosquitoes ([3]; push-pull) | Outdoors Percentage trapped ([3]; push-pull) [%] | spatial repellent effect [3] | solubility [4] | repellent effect on host-seeking mosquitoes [1] | further results
CC(=O)CCC=C(C)C [6-methyl-5-hepten-2-one] | significantly reduced the number of landings | – | – | – | – | – | – | – | –
CCN(CC)C(=O)c1cccc(C)c1 [DEET, N,N-diethyl-meta-toluamide] | significantly reduced the number of landings | – | – | – | – | – | – | – | spatial repellent effect [2]: little or no spatial repellent effect; also recorded: no spatial effect on distances from the human skin greater than a few millimeters
CC1CCC(C(C)(C)O)C(O)C1 (stereo not drawn) [PMD, p-Menthane-3,8-diol, reference compound] | significantly reduced the number of landings | 44.5 (5.6) b | 22.3 | 125.0 (13.8) | 62.5 | – | – | – | Reduction (mosquitoes trapped indoors vs control) ([3]; push only): 45.7%; Indoors Mean (SEM) no. mosquitoes ([3]; push-pull (repellent plus attractant-baited traps outside), 200 released per night): 6.8 (1.2) c, d; Indoors Percentage trapped ([3]; push-pull, 200 released per night): 3.4%; Reduction (mosquitoes trapped indoors vs control) ([3]; push-pull): 91.7%
C=CC(C)(O)CCC=C(C)C (stereo not drawn) [linalool] | significantly reduced the number of landings | – | – | – | – | – | – | – | –
CCCCCC1CCCC(=O)O1 (stereo not drawn) [δ-decalactone, 6-pentyloxan-2-one] | significantly reduced the number of landings | – | – | – | – | significant spatial repellent effect; also recorded: significant repellent effect from a distance of at least several decimeters | solubility in alcohols or oils | strong repellent effect | –
CCCCCCC1CCCC(=O)O1 (stereo not drawn) [δ-undecalactone, 6-hexyloxan-2-one] | significantly reduced the number of landings | 15.2 (2.5) c(d) | 7.6 | 122.8 (7.1) | 61.4 | significant spatial repellent effect; also recorded: significant repellent effect from a distance of at least several decimeters | solubility in alcohol | strong repellent effect | Reduction (mosquitoes trapped indoors vs control) ([3]; push only, listed as dUDL): 81.5%; Reduction (mosquitoes trapped indoors vs control) ([3]; push only, listed as delta-undecalactone): 81.5%; Indoors Mean (SEM) no. mosquitoes ([3]; push-pull (repellent plus attractant-baited traps outside), 200 released per night, listed as dUDL): 3.7 (0.7) d; Indoors Mean (SEM) no. mosquitoes ([3]; push-pull (repellent plus attractant-baited traps outside), 200 released per night, listed as delta-undecalactone): 3.7 (0.7); Indoors Percentage trapped ([3]; push-pull, 200 released per night, listed as dUDL): 1.9%; Indoors Percentage trapped ([3]; push-pull, 200 released per night, listed as delta-undecalactone): 1.9%; Reduction (mosquitoes trapped indoors vs control) ([3]; push-pull, listed as dUDL): 95.5%; Reduction (mosquitoes trapped indoors vs control) ([3]; push-pull, listed as delta-undecalactone): 95.5%
